# In patent US20260200849A1, “CATIONIC LIPIDS AND PREPARATION METHOD THEREOF” (RiboX Therapeutics HK Limited, priority 2024, published 2026):
# Values joined by “and” are separate entries in the source; they are usually repeats but may differ in a detail not shown here. Equal entries are not always repeated. Where two headings read alike, the source gives them in different places.
# Tests used:
# Balb/c mice = assay: In vivo expression by IV, 0.05 mg/kg luciferase RNA-LNPs, IVIS luminescence
# Protocol: 7-8 week old, female Balb/c mice (N=3) were injected with 0.05 mg*kg−1 of RNA-LNPs encoding for firefly-luciferase by intravenous injection. At 24- and 72-hours post injection, animals were intraperitoneally injected with 15 mg/mi of Luciferin substrate and whole-body luminescence was determined by a bioluminescent in vivo imaging system (IVIS).
# 7-8 week old, female Balb/c mice (N=3) were injected with 0.05 mg*kg−1 of RNA-LNPs encoding for firefly-luciferase by intravenous injection. At 24-hours post injection, animals were intraperitoneally injected with 15 mg/ml of Luciferin substrate and whole-body/liver/spleen luminescence was determined by a bioluminescent in vivo imaging system (IVIS).
# [1] = RNA encapsulation efficacy (EE %) by Quant-IT Ribogreen kit; format: physicochemical; settings: LNP
# Protocol: (§1) The LNP size and polydispersity index (PDI), determined by dynamic light scattering (DLS), and zeta potential were measured by a Zetasizer machine (Malvern). RNA concentration and encapsulation efficacy (EE %) were analyzed by the Quant-IT Ribogreen kit by calculating the percentage encapsulation at 100%—(RNA-LNPs/RNA-LNPs with Triton X-100).
# [2] = LNP size and polydispersity index (PDI) by dynamic light scattering (Zetasizer); format: physicochemical; settings: for Size (nm): Formulation No. 001 (Ionizable lipid:DSPC:cholesterol:DMG-PEG2000 = 50:10:38.5:1.5, N/P 6), RNA No. 331
# Protocol: as §1
# Hep G2 cells [3] = assay: In vitro expression: luciferase activity in Hep G2 cells transfected with RNA-LNPs; format: cell-based; settings: Formulation No. 001, RNA No. 331 (firefly-luciferase), 100 ng/mL RNA-LNPs, 72 hours post transfection
# Protocol: 2E5 Hep G2 cells were transfected with 100 ng/mL of RNA-LNPs encoding for firefly-luciferase. At 72 hours post transfection, the cells were washed and lysed. The luciferase expression (2-well repeat) was determined in the cell lysates with the luciferase assay reagent kit (Promega), according to the kit protocol, luciferase activity was measured by a luminometer.
# Hep G2 cells [4] = assay: In vitro toxicity: Hep G2 cell viability by CellTiter-Glo; format: cell-based; settings: Formulation No. 001, RNA No. 331, 1 μg/mL RNA-LNPs, 72 hours post transfection, cell only = 100%
# Protocol: 2E5 Hep G2 cells were transfected with 1 μg/mL RNA-LNPs. At 72 hours post transfection, cell viability (2-well repeat) was determined with the CellTiter-Glo® reagent kit, according to the kit protocol, measured by a luminometer. Cell only as control (100%).
# The cell viability was calculated according to the following formula: […]
# MCP-1 = assay: In vivo tolerability by IV: serum MCP-1 by Luminex; design: species or system C57BL/6J mice; settings: IV 1.0 mg/kg, male C57BL/6J mice N=3, Formulation 001, RNA 331
# Protocol: (§2) 6-8 week old, male C57BL/6J mice (N=3) were injected with 1.0 mg*kg/1 of RNA-LNPs encoding for firefly-luciferase by intravenous injection. At 2- and 24-hours post injection, about 40 μL blood was harvested and immediately added to the procoagulant containing tube. Stand for 30 min at room temperature and then centrifuged at 2500 g×10 min to obtain serum. About 15 μL serum samples were aliquoted for cytokine (MCP-1 and IL-6) detection by Luminex (ProcartaPlex Mouse 2-plex, Thermo). PBS group as negative control.
# (§3) 6-8 week old, male C57BL/6J mice (N=3) were injected with 1.0 mg*kg−1 of RNA-LNPs encoding for firefly-luciferase by intravenous injection. At 2- and 24-hours post injection, about 40 μL blood was harvested and immediately added to the procoagulant containing tube. Stand for 30 min at room temperature and then centrifuged at 2500 g×10 min to obtain serum. About 15 μL serum samples were aliquoted for cytokine (MCP-1 and IL-6) detection by Luminex (ProcartaPlex Mouse 2-plex, Thermo). PBS group as negative control.
# IL-6 = assay: In vivo tolerability by IV: serum IL-6 by Luminex; design: species or system C57BL/6J mice; settings: IV 1.0 mg/kg, male C57BL/6J mice N=3, Formulation 001, RNA 331
# Protocol: as §2, §3
# [5] = In vivo lipid metabolism by IV: ionizable lipid concentration in plasma and liver by LC-MS/MS; design: species or system Sprague-Dawley (SD) rats; settings: IV 0.15 mg/kg RNA-LNPs (hEPO), male SD rats, individual animals N=3
# Protocol: In Vivo Lipid Metabolism by IV 7-8 week old, male Sprague-Dawley (SD) rats (N=3) were injected with 0.15 mg*kg−1 of RNA-LNPs encoding for hEPO by intravenous injection. At 1-/6-/96-/168-hours post injection, about 100 μL blood will be harvested and immediately added to the EDTAK2 containing tube. Place on wet ice and then centrifuged at 3000 g×5 min to obtain plasma. 30 μL plasma will be aliquoted to the 1.5 mL tubes. At terminal 6-/168-hours post injection, the rats will be euthanized with CO2, hemorrhaged immediately with cardiac puncture, respectively. The livers were harvested, weighed and washed with saline, then put into 50 ml centrifuge tube placed in liquid nitrogen, then transferred into wet ice, and finally stored at −80° C. immediately. Both plasma and liver samples were used for ionizable lipid concentration quantification by LC-MS/MS. The lower limit of quantitation (LLOQ) is 1 ng/mL in plasma or 11 ng/g in liver. BQL—Below the lower limit of quantitation (LLOQ).
# C57BL/6J mice = assay: In vivo expression by IV, 1.0 mg/kg luciferase RNA-LNPs, whole-body and organ IVIS luminescence; settings: IV 1.0 mg/kg, 24 h post injection, male C57BL/6J mice N=3, Formulation 001, RNA 331
# Protocol: 6-8 week old, male C57BL/6J mice (N=3) were injected with 1.0 mg*kg−1 of RNA-LNPs encoding for firefly-luciferase by intravenous injection. At 24-hours post injection, animals were intraperitoneally injected with 15 mg/ml of Luciferin substrate and whole-body/liver/spleen/kidney/small intestine/large intestine luminescence were determined by a bioluminescent in vivo imaging system (IVIS).
# 6-8 week old, male C57BL/6J mice (N=3) were injected with 1.0 mg*kg−1 of RNA-LNPs encoding for firefly-luciferase by intravenous injection. At 24-hours post injection, animals were intraperitoneally injected with 15 mg/nil of Luciferin substrate and whole-body/liver/spleen/kidney/small intestine/large intestine luminescence were determined by a bioluminescent in vivo imaging system (IVIS).
# [6] = Formulation No. 001, RNA No. 331, female Balb/c mice, 0.05 mg*kg−1 intravenous, 24-hours post injection
# [7] = Formulation No. 001, RNA No. 331
# [8] = IV 0.05 mg/kg, 24 h post injection, female Balb/c mice N=3, Formulation 001, RNA 331
# [9] = Formulation No. 001, RNA No. 019 (hEPO)
smiles,measurement,setting,value
CCCCCCCCCC(=O)OCCCCCCCOC(=O)C(COC(=O)NCCN(C)C)NC(=O)OCCCCCCCCOC(=O)C(CCCCCC)CCCCCCCC (stereo not drawn) [Lipid 930],Liver (p/s) (Mean),Balb/c mice; [6],3.49E+07 p/s
same,Spleen (p/s) (Mean),Balb/c mice; [6],6.28E+06 p/s
same,Whole body (p/s) (Mean),Balb/c mice; [6],1.31E+08 p/s
same,EE (%),[1]; [7],97.46%
same,Size (nm),[2],92.24 nm
same,PDI,[2]; [7],0.04
same,In vitro Expression (Mean),Hep G2 cells [3],8.27E+03
same,In vitro cell viability (%) (Mean),Hep G2 cells [4],92.08%
CCCCCCCCCCCOC(=O)NC(COC(=O)NCCN(C)C)C(=O)OCCCCCCCC(=O)OC(CCCCCCCC)CCCCCCCC (stereo not drawn) [Lipid 912],Liver (p/s) (Mean),Balb/c mice; [6],1.67E+07 p/s
same,Spleen (p/s) (Mean),Balb/c mice; [6],7.97E+06 p/s
same,Whole body (p/s) (Mean),Balb/c mice; [6],8.26E+07 p/s
same,EE (%),[1]; [7],97.83%
same,Size (nm),[2],74.18 nm
same,PDI,[2]; [7],0.03
same,In vitro Expression (Mean),Hep G2 cells [3],4.57E+04
same,In vitro cell viability (%) (Mean),Hep G2 cells [4],92.96%
CCCCCCCCC(CCCCCCCC)OC(=O)CCCCCCCOC(=O)C(COC(=O)NCCN1CCCCCC1)NC(=O)OCCCCCCCCOC(=O)C(CCCCCC)CCCCCCCC (stereo not drawn) [Lipid 897],Liver (p/s) (Mean),Balb/c mice; [6],1.67E+08 p/s
same,Spleen (p/s) (Mean),Balb/c mice; [6],7.67E+07 p/s
same,Whole body (p/s) (Mean),Balb/c mice; [6],8.36E+08 p/s
same,EE (%),[1]; [7],95.30%
same,Size (nm),[2],60.19 nm
same,PDI,[2]; [7],0.04
same,In vitro Expression (Mean),Hep G2 cells [3],1.77E+05
same,In vitro cell viability (%) (Mean),Hep G2 cells [4],88.39%
CCCCC/C=C\C/C=C\CCCCCCCCOC(=O)NC(COC(=O)NCCN1CCCC1)C(=O)OCCCCCC(=O)OCC(CCCCCCCC)CCCCCCCCCC (stereo not drawn) [Lipid 909],Liver (p/s) (Mean),Balb/c mice; [6],7.57E+07 p/s
same,Spleen (p/s) (Mean),Balb/c mice; [6],2.35E+07 p/s
same,Whole body (p/s) (Mean),Balb/c mice; [6],7.25E+08 p/s
same,EE (%),[1]; [7],98.41%
same,Size (nm),[2],74.26 nm
same,PDI,[2]; [7],0.02
same,In vitro Expression (Mean),Hep G2 cells [3],7.29E+04
same,In vitro cell viability (%) (Mean),Hep G2 cells [4],94.80%
CCCCCCCCCCC(CCCCCCCC)COC(=O)CCCCCOC(=O)NC(COC(=O)NCCN1CCCCCC1)C(=O)OCCCCCC(=O)OCC(CCCCCCCC)CCCCCCCCCC (stereo not drawn) [Lipid 1021],MCP-1 at 2 h,MCP-1; 2 h,1560 pg/mL
same,MCP-1 at 24 h,MCP-1; 24 h,166 pg/mL
same,Liver (p/s) (Mean),Balb/c mice; [8],1.19E+08 p/s
same,Spleen (p/s) (Mean),Balb/c mice; [8],5.32E+07 p/s
same,Whole body (p/s) (Mean),Balb/c mice; [8],8.26E+08 p/s
same,EE (%),[1]; [9],96.60%
same,EE (%),[1]; [7],93.55%
same,PDI,[2]; [9],0.04
same,Size,[2]; [9],57.55 nm
same,PDI,[2]; [7],0.05
same,Size,[2]; [7],57.55 nm
same,IL-6 at 2 h,IL-6; 2 h,28.6 pg/mL
same,IL-6 at 24 h,IL-6; 24 h,0.639 pg/mL
same,"Plasma (ng/mL), ionizable lipid concentration",[5]; 1 h post injection,2558 ng/mL and 2938 ng/mL
same,"Liver (ng/g), ionizable lipid concentration",[5]; 6 h post injection,33582 ng/g and 37570 ng/g
same,"Plasma (ng/mL), ionizable lipid concentration",[5]; 6 h post injection,976 ng/mL and 1347 ng/mL
same,"Plasma (ng/mL), ionizable lipid concentration",[5]; 96 h post injection,23.9 ng/mL and 5.16 ng/mL and 9.41 ng/mL
same,"Liver (ng/g), ionizable lipid concentration",[5]; 168 h post injection,3103 ng/g and 1228 ng/g and 1508 ng/g
same,"Plasma (ng/mL), ionizable lipid concentration",[5]; 168 h post injection,6.98 ng/mL and 1.89 ng/mL
same,concentration at 6 h,"[5]; male, Sprague-Dawley, rat, liver, iv, 0.15 mg/kg, 6 h post injection, read-out: Liver (ng/g), ionizable lipid concentration",48100 ng/g
same,concentration at 1 h,"[5]; male, Sprague-Dawley, rat, plasma, iv, 0.15 mg/kg, 1 h post injection",3280 ng/mL
same,concentration at 6 h,"[5]; male, Sprague-Dawley, rat, plasma, iv, 0.15 mg/kg, 6 h post injection, read-out: Plasma (ng/mL), ionizable lipid concentration",1480 ng/mL
same,Kidney (p/s),C57BL/6J mice,5.69E+07 p/s
same,Large intestine (p/s),C57BL/6J mice,1.91E+08 p/s
same,Liver (p/s),C57BL/6J mice,1.88E+10 p/s
same,Small intestine (p/s),C57BL/6J mice,1.60E+09 p/s
same,Spleen (p/s),C57BL/6J mice,6.45E+08 p/s
same,Whole body (p/s),C57BL/6J mice,1.48E+10 p/s
